ChEMBL document CHEMBL1201862, “PubChem BioAssay data set” (2004)
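All cell lines were grown in 96-well plates and treated with compound for 48 hours. Abbreviation: GI50, concentration required for 50% inhibition of growth.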 Activity calls are given as the source filed them. No stated cut-off is given here; in the data, active = GI50 up to about 1.1 µM and inactive = higher.

Assays:
Assay in all cases: NCI-60 cell line screen, 48 h
786-0 = test system: 786-0
A498 = test system: A498
A549 = test system: A549
ACHN = test system: ACHN
BT-549 = test system: BT-549
CAKI-1 = test system: CAKI-1
CCRF-CEM = test system: CCRF-CEM
COLO 205 = test system: COLO 205
DU-145 = test system: DU-145
EKVX = test system: EKVX
HCC 2998 = test system: HCC 2998
HCT-116 = test system: HCT-116
HCT-15 = test system: HCT-15
HL-60 = test system: HL-60
HOP-62 = test system: HOP-62
HOP-92 = test system: HOP-92
HT-29 = test system: HT-29
Hs-578T = test system: Hs-578T
KM12 = test system: KM12
LOX IMVI = test system: LOX IMVI
M14 = test system: M14
MCF7 = test system: MCF7
MDA-MB-231 = test system: MDA-MB-231
MDA-MB-435 = test system: MDA-MB-435
MDA-N = test system: MDA-N
MOLT-4 = test system: MOLT-4
Malme-3M = test system: Malme-3M
NCI-H226 = test system: NCI-H226
NCI-H460 = test system: NCI-H460
NCI/ADR-RES = test system: NCI/ADR-RES
OVCAR-3 = test system: OVCAR-3
OVCAR-4 = test system: OVCAR-4
OVCAR-5 = test system: OVCAR-5
OVCAR-8 = test system: OVCAR-8
PC-3 = test system: PC-3
RPMI-8226 = test system: RPMI-8226
RXF 393 = test system: RXF 393
SF-268 = test system: SF-268
SF-295 = test system: SF-295
SF-539 = test system: SF-539
SK-MEL-28 = test system: SK-MEL-28
SK-MEL-5 = test system: SK-MEL-5
SK-OV-3 = test system: SK-OV-3
SN12C = test system: SN12C
SNB-19 = test system: SNB-19
SNB-75 = test system: SNB-75
T47D = test system: T47D
TK-10 = test system: TK-10
U-251 = test system: U-251
UACC-257 = test system: UACC-257
UACC-62 = test system: UACC-62
UO-31 = test system: UO-31
IGROV-1 = test system: IGROV-1
K562 = test system: K562
NCI-H23 = test system: NCI-H23
NCI-H522 = test system: NCI-H522
SK-MEL-2 = test system: SK-MEL-2
SW-620 = test system: SW-620

For `C=C1CC(C)(c2cccc(Nc3nc4ccccc4c4occc34)c2)OC1=O` (stereo unspecified), the GI50 (786-0) was 1.67 µM (inactive), the GI50 (A498) was 17.7 µM (inactive) and the GI50 (A549) was 3.92 µM (inactive). For the same compound, the GI50 (ACHN) was 4.8 µM (inactive), the GI50 (BT-549) was 4.85 µM (inactive) and the GI50 (CAKI-1) was 3.98 µM (inactive). The GI50 (CCRF-CEM) was 2.07 µM (inactive), the GI50 (COLO 205) was 4.38 µM (inactive) and the GI50 (DU-145) was 5.6 µM (inactive). The GI50 (EKVX) was 14.7 µM (inactive), the GI50 (HCC 2998) was 2.43 µM (inactive) and the GI50 (HCT-116) was 1.67 µM (inactive). For the same compound, the GI50 (HCT-15) was 3.52 µM, the GI50 (HL-60) was 2.27 µM (inactive) and the GI50 (HOP-62) was 12.2 µM (inactive). For the same compound, the GI50 (HOP-92) was 1.44 µM (inactive), the GI50 (HT-29) was 4.99 µM (inactive) and the GI50 (Hs-578T) was 3.25 µM (inactive). The GI50 (KM12) was 5.08 µM (inactive), the GI50 (LOX IMVI) was 1.99 µM (inactive) and the GI50 (M14) was 2.84 µM (inactive). For the same compound, the GI50 (MCF7) was 3.71 µM (inactive), the GI50 (MDA-MB-231) was 5.11 µM (inactive) and the GI50 (MDA-MB-435) was 5.11 µM (inactive). The GI50 (MDA-N) was 5.21 µM (inactive), the GI50 (MOLT-4) was 10.6 µM (inactive) and the GI50 (Malme-3M) was 17.6 µM (inactive). The GI50 (NCI-H226) was 1.5 µM (inactive), the GI50 (NCI-H460) was 15.6 µM (inactive) and the GI50 (NCI/ADR-RES) was 8 µM (inactive). For the same compound, the GI50 (OVCAR-3) was 4.8 µM (inactive), the GI50 (OVCAR-4) was 7.89 µM (inactive) and the GI50 (OVCAR-5) was 14.3 µM (inactive). For the same compound, the GI50 (OVCAR-8) was 6.08 µM (inactive), the GI50 (PC-3) was 5.52 µM (inactive) and the GI50 (RPMI-8226) was 2.03 µM (inactive). The GI50 (RXF 393) was 2.36 µM (inactive), the GI50 (SF-268) was 10.5 µM (inactive) and the GI50 (SF-295) was 16.8 µM (inactive). For the same compound, the GI50 (SF-539) was 1.69 µM (inactive), the GI50 (SK-MEL-28) was 13.9 µM (inactive) and the GI50 (SK-MEL-5) was 15.1 µM (inactive). For the same compound, the GI50 (SK-OV-3) was 13.7 µM (inactive), the GI50 (SN12C) was 2.83 µM (inactive) and the GI50 (SNB-19) was 17.2 µM (inactive). The GI50 (SNB-75) was 5.58 µM (inactive), the GI50 (T47D) was 3.1 µM (inactive) and the GI50 (TK-10) was 3.56 µM (inactive). For the same compound, the GI50 (U-251) was 10 µM (inactive), the GI50 (UACC-257) was 0.0218 µM (active) and the GI50 (UACC-62) was 0.65 µM (active). The GI50 (UO-31) was 1.89 µM (inactive).

For `COc1cc(-c2coc3c(OC)c(OC4OC(COC5OC(C)C(O)C(O)C5O)C(O)C(O)C4O)c(OC)c(O)c3c2=O)cc(C)c1O` (stereo unspecified), the GI50 (786-0) was 0.178 µM (active), the GI50 (A549) was 23.8 µM (inactive) and the GI50 (ACHN) was 21.2 µM (inactive). The GI50 (BT-549) was 13.9 µM (inactive), the GI50 (CAKI-1) was 18 µM (inactive) and the GI50 (CCRF-CEM) was 5.93 µM (inactive). For the same compound, the GI50 (COLO 205) was 19.6 µM (inactive), the GI50 (DU-145) was 19.6 µM (inactive) and the GI50 (EKVX) was 17.2 µM (inactive). For the same compound, the GI50 (HCC 2998) was 16.1 µM (inactive), the GI50 (HCT-116) was 0.185 µM (active) and the GI50 (HCT-15) was 16.4 µM. For the same compound, the GI50 (HOP-62) was 22.1 µM (inactive), the GI50 (HOP-92) was 19.2 µM (inactive) and the GI50 (HT-29) was 19.5 µM (inactive). For the same compound, the GI50 (Hs-578T) was 20.7 µM (inactive), the GI50 (IGROV-1) was 17 µM (inactive) and the GI50 (K562) was 13.4 µM (inactive). For the same compound, the GI50 (KM12) was 11.7 µM (inactive), the GI50 (LOX IMVI) was 16.5 µM (inactive) and the GI50 (M14) was 15.5 µM (inactive). For the same compound, the GI50 (MCF7) was 12.3 µM (inactive), the GI50 (MDA-MB-231) was 32.5 µM (inactive) and the GI50 (MDA-MB-435) was 16 µM (inactive). For the same compound, the GI50 (MDA-N) was 0.873 µM (active), the GI50 (MOLT-4) was 3.73 µM (inactive) and the GI50 (Malme-3M) was 18.3 µM (inactive). The GI50 (NCI-H23) was 13.1 µM (inactive), the GI50 (NCI-H460) was 23.2 µM (inactive) and the GI50 (NCI-H522) was 12.7 µM (inactive). The GI50 (NCI/ADR-RES) was 17.9 µM (inactive), the GI50 (OVCAR-3) was 13.7 µM (inactive) and the GI50 (OVCAR-4) was 18.9 µM (inactive). For the same compound, the GI50 (OVCAR-5) was 21.7 µM (inactive), the GI50 (OVCAR-8) was 23.6 µM (inactive) and the GI50 (PC-3) was 24.8 µM (inactive). The GI50 (RXF 393) was 13 µM (inactive), the GI50 (SF-268) was 19.4 µM (inactive) and the GI50 (SF-295) was 16.6 µM (inactive). The GI50 (SF-539) was 21.3 µM (inactive), the GI50 (SK-MEL-28) was 15.1 µM (inactive) and the GI50 (SK-MEL-2) was 23.8 µM (inactive). For the same compound, the GI50 (SK-MEL-5) was 12.6 µM (inactive), the GI50 (SK-OV-3) was 16.8 µM (inactive) and the GI50 (SN12C) was 1.68 µM (inactive). For the same compound, the GI50 (SNB-19) was 13.8 µM (inactive), the GI50 (SNB-75) was 16 µM (inactive) and the GI50 (SW-620) was 12.7 µM (inactive). For the same compound, the GI50 (T47D) was 15.5 µM (inactive), the GI50 (TK-10) was 34.8 µM (inactive) and the GI50 (U-251) was 15.5 µM (inactive). The GI50 (UACC-257) was 22.3 µM (inactive), the GI50 (UACC-62) was 14.3 µM (inactive) and the GI50 (UO-31) was 16.6 µM (inactive).
